Legend:
Type in all cases: cell-based
A431 cells = experiment: Cell growth inhibition (CellTiter-Glo, 3 days) in A431; settings: Homo sapiens, A-431, 72 h, 3 days after administration
Procedure, shortened: (§1)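 HCC827 cells were plated at 5000 cells/well in RPMI with 10% FBS, and A431 cells at the same density in DMEM with 10% FBS. After overnight attachment, compounds were added at various concentrations. Luminescence was recorded after plates were equilibrated to room temperature and incubated 10 min with reagent.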

[1] = test system: HCC827-YVMA cells (human ERBB2 exon20 insertion mutant A775_G776ins YVMA); experiment: Cell growth inhibition (CellTiter-Glo, 3 days) in HCC827-YVMA; settings: 72 h, 3 days after administration
Procedure, shortened: (§2)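 Growth inhibition used a CellTiter-Glo luminescence read-out after 3 days of compound exposure at various concentrations. Cells were plated the day before at 5000/well in RPMI plus 10% FBS. The lines are HCC827 transduced by lentivirus with codon-optimized EGFR ASV or ERBB2 YVMA exon 20 insertions.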

[2] = test system: HCC827-SVD cells (human EGFR exon 20 insertion mutant D770_N771 insSVD); experiment: Cell growth inhibition (CellTiter-Glo, 3 days) in HCC827-SVD; settings: 72 h, 3 days after administration
Procedure, shortened: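 HCC827 cells carrying lentiviral codon-optimized EGFR D770_N771 insSVD, with endogenous EGFR knocked out by CRISPR (single clone), seeded at 5000 cells/well in RPMI with 10% FBS. Viability read by CellTiter-Glo luminescence.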

[3] = test system: HCC827-ASV cells (human EGFR exon 20 insertion mutant A769_D770insASV); experiment: Cell growth inhibition (CellTiter-Glo, 3 days) in HCC827-ASV; settings: 72 h, 3 days after administration
Procedure, shortened: as §2

HCC827 cells = experiment: Cell growth inhibition (CellTiter-Glo, 3 days) in HCC827; settings: Homo sapiens, 72 h, 3 days after administration
Procedure, shortened: as §1

GI50 (A431 cells) [nM] | GI50 [1] [nM] | GI50 [2] [nM] | GI50 [3] [nM] | GI50 (HCC827 cells) [nM] | Compound
300 to 600 | < 30 | 30 to 60 | < 30 | 100 to 300 | C=CC(=O)N1CCC(Nc2cc3c(Nc4ccc(Oc5ccn(-c6cc(OC)ncn6)n5)cc4F)ncnc3cc2OC)CC1 [Example 30, 1-(4-((4-((2-fluoro-4-((1-(6-methoxypyrimidin-4-yl)-1H-pyrazol-3-yl)oxy)phenyl)amino)-7-methoxyquinazolin-6-yl)amino)piperidin-1-yl)prop-2-en-1-one]
100 to 300 | < 30 | < 30 | < 30 | 60 to 100 | C=CC(=O)N1CCC(Nc2cc3c(Nc4ccc(Oc5nc(-c6cnc(C)nc6)cs5)cc4F)ncnc3cc2OC)CC1 [Example 32, 1-(4-((4-((2-fluoro-4-((4-(2-methylpyrimidin-5-yl)thiazol-2-yl)oxy)phenyl)amino)-7-methoxyquinazolin-6-yl)amino)piperidin-1-yl)prop-2-en-1-one]
100 to 300 | 100 to 300 | 100 to 300 | 60 to 100 | 300 to 600 | C=CC(=O)N1CCC(Nc2cc3c(Nc4ccc(Oc5ccn(-c6cnc(C)cn6)n5)cc4F)ncnc3cc2OC)CC1 [Example 33, 1-(4-((4-((2-fluoro-4-((1-(5-methylpyrazin-2-yl)-1H-pyrazol-3-yl)oxy)phenyl)amino)-7-methoxyquinazolin-6-yl)amino)piperidin-1-yl)prop-2-en-1-one]
30 to 60 | 60 to 100 | 30 to 60 | 60 to 100 | 60 to 100 | C=CC(=O)N1CCC(Nc2cc3c(Nc4ccc(Oc5ccn(-c6cnc(C)c(C)c6)n5)cc4F)ncnc3cc2OC)CC1 [Example 36, 1-(4-((4-((4-((1-(5,6-dimethylpyridin-3-yl)-1H-pyrazol-3-yl)oxy)-2-fluorophenyl)amino)-7-methoxyquinazolin-6-yl)amino)piperidin-1-yl)prop-2-en-1-one]
300 to 600 | < 30 | < 30 | < 30 | 30 to 60 | C=CC(=O)N1CCC(Nc2cc3c(Nc4ccc(Oc5ccn(-c6cnc(C)cc6C)n5)cc4F)ncnc3cc2OC)CC1 [Example 37, 1-(4-((4-((4-((1-(4,6-dimethylpyridin-3-yl)-1H-pyrazol-3-yl)oxy)-2-fluorophenyl)amino)-7-methoxyquinazolin-6-yl)amino)piperidin-1-yl)prop-2-en-1-one]
30 to 60 | 30 to 60 | 30 to 60 | 30 to 60 | 100 to 300 | C=CC(=O)N1CCC(Nc2cc3c(Nc4ccc(Oc5ccn(-c6cnc(C)c(OC)c6)n5)cc4F)ncnc3cc2OC)CC1 [Example 38, 1-(4-((4-((2-fluoro-4-((1-(5-methoxy-6-methylpyridin-3-yl)-1H-pyrazol-3-yl)oxy)phenyl)amino)-7-methoxyquinazolin-6-yl)amino)piperidin-1-yl)prop-2-en-1-one]
300 to 600 | < 30 | < 30 | < 30 | 60 to 100 | C=CC(=O)N1CCC(Nc2cc3c(Nc4ccc(Oc5ccnc(-n6cc(C)cn6)n5)cc4F)ncnc3cc2OC)CC1 [Example 39, 1-(4-((4-((2-fluoro-4-((2-(4-methyl-1H-pyrazol-1-yl)pyrimidin-4-yl)oxy)phenyl)amino)-7-methoxyquinazolin-6-yl)amino)piperidin-1-yl)prop-2-en-1-one]
≥ 1000 | 600 to 1000 | 600 to 1000 | 300 to 600 | ≥ 1000 | C=CC(=O)N1CCC(Nc2cc3c(Nc4ccc(Oc5ccnc(-c6cncs6)c5)cc4F)ncnc3cc2OC)CC1 [Example 42, 1-(4-((4-((2-fluoro-4-((2-(thiazol-5-yl)pyridin-4-yl)oxy)phenyl)amino)-7-methoxyquinazolin-6-yl)amino)piperidin-1-yl)prop-2-en-1-one]

Reference: patent US20240398805A1, “QUINAZOLINE DERIVED COMPOUNDS AS EGFR INHIBITORS AND THEIR USES THEREOF” (ACCUTAR BIOTECHNOLOGY INC., priority 2021, published 2024)
